ChEMBL document CHEMBL5465560, “Selectivity Literature for EUbOPEN Chemogenomic Library” (2024)

Experiments:
[1] = target: Mitogen-activated protein kinase kinase kinase 9 (Homo sapiens) (UniProt P80192); assay: Selectivity interaction (Kinase panel (KiNativ target engagement assay in Jurkat cells)) EUB0001635a MAP3K9; format: cell-based; settings: Selectivity number of off-targets 0.0, Selectivity number of targets 233.0, Source Knowledge https://www.sciencedirect.com/science/article/pii/S2451945619300674?via%3Dihub, at 1 µM
[2] = target: Cyclin-dependent kinase 15 (Homo sapiens) (UniProt Q96Q40); assay: Selectivity interaction (KinomeScan (DiscoverX)) EUB0000595a CDK15; settings: at 10 µM
Chain of Cyclin-dependent kinase 15 (Homo sapiens) (Q96Q40 whole entry): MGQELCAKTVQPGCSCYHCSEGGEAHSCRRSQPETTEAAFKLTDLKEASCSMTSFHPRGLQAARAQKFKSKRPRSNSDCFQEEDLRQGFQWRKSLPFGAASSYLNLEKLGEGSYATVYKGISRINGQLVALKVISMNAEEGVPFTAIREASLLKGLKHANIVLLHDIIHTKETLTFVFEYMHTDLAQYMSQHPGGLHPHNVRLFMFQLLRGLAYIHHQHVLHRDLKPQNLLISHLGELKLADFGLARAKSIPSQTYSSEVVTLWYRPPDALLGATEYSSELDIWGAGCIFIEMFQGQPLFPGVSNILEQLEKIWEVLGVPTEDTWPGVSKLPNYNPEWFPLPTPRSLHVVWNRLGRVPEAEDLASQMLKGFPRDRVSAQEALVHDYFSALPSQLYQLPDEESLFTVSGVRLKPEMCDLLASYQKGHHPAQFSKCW

[3] = target: Dual specificity tyrosine-phosphorylation-regulated kinase 1B (Homo sapiens, UniProt Q9Y463); assay: Selectivity interaction (KinomeScan (DiscoverX)) EUB0000595a DYRK1B; settings: at 10 µM
[4] = target: MAP/microtubule affinity-regulating kinase 3 (Homo sapiens) (UniProt P27448); assay: Selectivity interaction (KinomeScan (DiscoverX)) EUB0000695a MARK3; settings: at 100 nM
[5] = target: Phosphatidylinositol 4,5-bisphosphate 3-kinase catalytic subunit beta isoform (Homo sapiens) (UniProt P42338); assay: Selectivity interaction (KinomeScan (DiscoverX)) EUB0001079a PIK3CB; settings: at 1 µM
[6] = target: cAMP-dependent protein kinase catalytic subunit alpha (Homo sapiens, UniProt P17612); assay: Selectivity interaction (Kinase panel (Z-LYTE Assay)) EUB0001632a PRKACA; settings: at 10 µM
[7] = target: Serine/threonine-protein kinase 32A (Homo sapiens) (UniProt Q8WU08); assay: Selectivity interaction (KinomeScan (DiscoverX)) EUB0000666a STK32A; settings: at 10 µM
Chain of Serine/threonine-protein kinase 32A (Homo sapiens) (Q8WU08 whole entry): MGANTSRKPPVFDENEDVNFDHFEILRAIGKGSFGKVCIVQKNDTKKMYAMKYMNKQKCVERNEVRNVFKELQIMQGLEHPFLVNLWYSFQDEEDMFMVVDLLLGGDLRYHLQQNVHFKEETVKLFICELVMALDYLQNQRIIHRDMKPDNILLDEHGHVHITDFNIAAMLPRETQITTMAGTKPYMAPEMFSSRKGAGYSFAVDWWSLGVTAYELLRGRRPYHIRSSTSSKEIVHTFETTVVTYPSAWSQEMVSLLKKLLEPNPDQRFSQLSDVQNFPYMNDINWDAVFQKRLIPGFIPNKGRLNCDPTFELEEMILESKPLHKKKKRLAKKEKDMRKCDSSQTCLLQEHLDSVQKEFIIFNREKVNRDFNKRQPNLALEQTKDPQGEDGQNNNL

[8] = target: TGF-beta receptor type-2 (Homo sapiens) (UniProt P37173); assay: Selectivity interaction (KinomeScan (DiscoverX)) EUB0001049a TGFBR2; settings: at 1 µM
Chain of TGF-beta receptor type-2 (Homo sapiens) (P37173 whole entry): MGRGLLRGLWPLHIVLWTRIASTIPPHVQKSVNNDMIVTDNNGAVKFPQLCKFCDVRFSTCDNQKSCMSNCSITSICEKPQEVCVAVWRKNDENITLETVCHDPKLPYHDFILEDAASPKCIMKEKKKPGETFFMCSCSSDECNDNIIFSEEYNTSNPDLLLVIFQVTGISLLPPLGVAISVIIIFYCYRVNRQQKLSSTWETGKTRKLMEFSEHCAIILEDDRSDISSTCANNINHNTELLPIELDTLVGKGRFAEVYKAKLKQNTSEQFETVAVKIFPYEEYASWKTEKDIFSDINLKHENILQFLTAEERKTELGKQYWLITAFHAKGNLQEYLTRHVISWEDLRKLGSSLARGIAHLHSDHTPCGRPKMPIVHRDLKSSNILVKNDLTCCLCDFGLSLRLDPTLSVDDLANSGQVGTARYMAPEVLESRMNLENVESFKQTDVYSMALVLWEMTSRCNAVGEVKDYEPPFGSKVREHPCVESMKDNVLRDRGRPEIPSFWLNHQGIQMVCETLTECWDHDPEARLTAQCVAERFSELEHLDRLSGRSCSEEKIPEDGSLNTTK

[9] = target: Phosphatidylinositol 4-kinase alpha (Homo sapiens, UniProt P42356); assay: Selectivity interaction (Kinase panel (radiometric assay)) EUB0000877a PI4KA
[10] = target: Myosin-IIIa (Homo sapiens) (UniProt Q8NEV4); assay: Selectivity interaction (KinomeScan (DiscoverX)) EUB0001619a MYO3A; settings: at 1 µM
Chain of Myosin-IIIa (Homo sapiens) (Q8NEV4 whole entry): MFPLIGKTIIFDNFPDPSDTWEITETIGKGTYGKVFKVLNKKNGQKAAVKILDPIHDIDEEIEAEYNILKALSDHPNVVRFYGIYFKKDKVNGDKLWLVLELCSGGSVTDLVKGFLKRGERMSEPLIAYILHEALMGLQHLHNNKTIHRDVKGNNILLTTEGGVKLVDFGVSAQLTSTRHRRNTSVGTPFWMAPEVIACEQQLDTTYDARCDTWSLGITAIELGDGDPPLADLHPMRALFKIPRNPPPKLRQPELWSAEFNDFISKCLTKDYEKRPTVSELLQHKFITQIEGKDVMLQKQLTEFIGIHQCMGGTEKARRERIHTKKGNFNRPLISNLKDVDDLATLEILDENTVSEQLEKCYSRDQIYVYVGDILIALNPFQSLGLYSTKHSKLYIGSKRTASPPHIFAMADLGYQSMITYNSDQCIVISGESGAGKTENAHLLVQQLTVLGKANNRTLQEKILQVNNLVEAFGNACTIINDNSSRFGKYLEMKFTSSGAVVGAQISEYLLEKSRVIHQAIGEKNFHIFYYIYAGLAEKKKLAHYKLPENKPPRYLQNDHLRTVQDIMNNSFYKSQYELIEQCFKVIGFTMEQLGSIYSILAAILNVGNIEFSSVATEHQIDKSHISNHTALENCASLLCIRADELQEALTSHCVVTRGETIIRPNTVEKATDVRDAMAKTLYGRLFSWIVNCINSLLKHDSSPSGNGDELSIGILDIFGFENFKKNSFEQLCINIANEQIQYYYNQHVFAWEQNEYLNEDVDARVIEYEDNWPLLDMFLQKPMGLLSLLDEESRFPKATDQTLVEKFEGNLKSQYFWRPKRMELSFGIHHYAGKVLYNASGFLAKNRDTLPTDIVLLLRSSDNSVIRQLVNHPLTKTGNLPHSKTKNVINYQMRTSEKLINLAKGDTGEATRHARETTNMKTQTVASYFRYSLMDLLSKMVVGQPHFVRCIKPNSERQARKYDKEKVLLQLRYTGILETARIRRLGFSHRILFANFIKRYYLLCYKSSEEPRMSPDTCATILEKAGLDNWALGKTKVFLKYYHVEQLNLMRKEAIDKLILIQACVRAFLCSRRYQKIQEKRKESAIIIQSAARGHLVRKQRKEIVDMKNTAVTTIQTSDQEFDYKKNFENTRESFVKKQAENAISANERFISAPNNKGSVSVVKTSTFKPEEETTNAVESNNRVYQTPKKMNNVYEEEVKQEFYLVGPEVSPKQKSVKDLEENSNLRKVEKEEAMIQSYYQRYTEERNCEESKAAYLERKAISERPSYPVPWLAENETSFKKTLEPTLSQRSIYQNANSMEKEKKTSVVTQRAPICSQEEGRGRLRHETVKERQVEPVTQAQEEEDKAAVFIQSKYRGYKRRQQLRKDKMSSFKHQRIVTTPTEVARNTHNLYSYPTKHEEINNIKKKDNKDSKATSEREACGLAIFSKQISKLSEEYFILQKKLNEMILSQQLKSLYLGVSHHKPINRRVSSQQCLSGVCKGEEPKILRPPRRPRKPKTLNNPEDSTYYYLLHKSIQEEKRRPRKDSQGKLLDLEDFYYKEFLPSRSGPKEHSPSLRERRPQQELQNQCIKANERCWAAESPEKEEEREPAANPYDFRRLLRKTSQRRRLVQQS

[11] = target: T1, 3-phosphoinositide-dependent protein kinase 1 (Homo sapiens) (UniProt O15530); assay: Selectivity interaction (KinomeScan (DiscoverX)) EUB0001619a PDPK1; settings: at 1 µM
T1 sequence (whole entry): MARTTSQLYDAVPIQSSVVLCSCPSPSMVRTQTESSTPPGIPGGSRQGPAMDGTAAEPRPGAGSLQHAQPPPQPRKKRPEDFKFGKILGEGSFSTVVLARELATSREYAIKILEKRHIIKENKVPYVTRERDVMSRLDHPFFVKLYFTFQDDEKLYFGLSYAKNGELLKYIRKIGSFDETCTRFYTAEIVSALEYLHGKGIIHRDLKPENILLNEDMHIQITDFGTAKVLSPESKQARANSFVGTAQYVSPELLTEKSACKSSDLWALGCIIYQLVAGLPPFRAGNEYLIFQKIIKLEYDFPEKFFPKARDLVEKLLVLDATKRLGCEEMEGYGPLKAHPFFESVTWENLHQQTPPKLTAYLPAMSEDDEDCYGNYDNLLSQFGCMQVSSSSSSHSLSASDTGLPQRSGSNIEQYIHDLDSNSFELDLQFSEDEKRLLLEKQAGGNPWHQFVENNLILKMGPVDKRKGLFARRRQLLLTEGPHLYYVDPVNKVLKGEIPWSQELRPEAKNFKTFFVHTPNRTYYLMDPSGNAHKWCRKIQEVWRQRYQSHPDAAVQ

[12] = target: Receptor tyrosine-protein kinase erbB-4 (Homo sapiens, UniProt Q15303); assay: Selectivity interaction (Radiometric kinase assay (using 10 uM ATP)) EUB0000601a ERBB4
[13] = target: Myosin-IIIa (Homo sapiens) (UniProt Q8NEV4); assay: Selectivity interaction (KinomeScan (DiscoverX)) EUB0000607a MYO3A; settings: at 10 µM
[14] = target: Cyclin-dependent kinase 15 (Homo sapiens) (UniProt Q96Q40); assay: Selectivity interaction (KinomeScan (DiscoverX)) EUB0000655a CDK15; settings: at 10 µM
[15] = target: T2, Activin receptor type-1 (Homo sapiens) (UniProt Q04771); assay: Selectivity interaction (Ambit KINOMEscan and KiNATiv profiling in Jurkat cells) EUB0000090b ACVR1; format: cell-based; settings: at 1 µM
T2 sequence (whole entry): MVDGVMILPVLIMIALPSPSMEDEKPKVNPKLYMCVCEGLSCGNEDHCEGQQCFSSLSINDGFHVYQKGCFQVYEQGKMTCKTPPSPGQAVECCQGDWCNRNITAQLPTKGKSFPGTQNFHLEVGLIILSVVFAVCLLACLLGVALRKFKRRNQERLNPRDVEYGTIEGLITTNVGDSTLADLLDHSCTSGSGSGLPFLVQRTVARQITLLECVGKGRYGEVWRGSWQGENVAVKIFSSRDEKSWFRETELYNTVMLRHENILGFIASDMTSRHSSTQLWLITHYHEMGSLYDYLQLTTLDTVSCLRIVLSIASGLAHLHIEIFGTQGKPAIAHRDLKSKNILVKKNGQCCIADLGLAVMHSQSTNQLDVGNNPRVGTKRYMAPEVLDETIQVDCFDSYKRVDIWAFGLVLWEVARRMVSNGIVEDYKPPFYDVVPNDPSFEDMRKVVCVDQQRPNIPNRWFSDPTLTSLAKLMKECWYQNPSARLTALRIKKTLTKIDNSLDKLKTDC

[16] = system: Leucine-rich repeat serine/threonine-protein kinase 2 (Homo sapiens), Q5S007 [G2019S]; assay: (§1) Selectivity interaction (Ambit KINOMEscan and KiNATiv profiling in Jurkat cells) EUB0000090b LRRK2; format: cell-based; settings: at 1 µM
[17] = target: Leucine-rich repeat serine/threonine-protein kinase 2 (Homo sapiens, UniProt Q5S007); assay: as §1; format: cell-based; settings: at 1 µM
[18] = target: Transient receptor potential cation channel subfamily M member 6 (Homo sapiens) (UniProt Q9BX84); assay: Selectivity interaction (Ambit KINOMEscan and KiNATiv profiling in Jurkat cells) EUB0000090b TRPM6; format: cell-based; settings: at 1 µM
Chain of Transient receptor potential cation channel subfamily M member 6 (Homo sapiens) (Q9BX84 whole entry): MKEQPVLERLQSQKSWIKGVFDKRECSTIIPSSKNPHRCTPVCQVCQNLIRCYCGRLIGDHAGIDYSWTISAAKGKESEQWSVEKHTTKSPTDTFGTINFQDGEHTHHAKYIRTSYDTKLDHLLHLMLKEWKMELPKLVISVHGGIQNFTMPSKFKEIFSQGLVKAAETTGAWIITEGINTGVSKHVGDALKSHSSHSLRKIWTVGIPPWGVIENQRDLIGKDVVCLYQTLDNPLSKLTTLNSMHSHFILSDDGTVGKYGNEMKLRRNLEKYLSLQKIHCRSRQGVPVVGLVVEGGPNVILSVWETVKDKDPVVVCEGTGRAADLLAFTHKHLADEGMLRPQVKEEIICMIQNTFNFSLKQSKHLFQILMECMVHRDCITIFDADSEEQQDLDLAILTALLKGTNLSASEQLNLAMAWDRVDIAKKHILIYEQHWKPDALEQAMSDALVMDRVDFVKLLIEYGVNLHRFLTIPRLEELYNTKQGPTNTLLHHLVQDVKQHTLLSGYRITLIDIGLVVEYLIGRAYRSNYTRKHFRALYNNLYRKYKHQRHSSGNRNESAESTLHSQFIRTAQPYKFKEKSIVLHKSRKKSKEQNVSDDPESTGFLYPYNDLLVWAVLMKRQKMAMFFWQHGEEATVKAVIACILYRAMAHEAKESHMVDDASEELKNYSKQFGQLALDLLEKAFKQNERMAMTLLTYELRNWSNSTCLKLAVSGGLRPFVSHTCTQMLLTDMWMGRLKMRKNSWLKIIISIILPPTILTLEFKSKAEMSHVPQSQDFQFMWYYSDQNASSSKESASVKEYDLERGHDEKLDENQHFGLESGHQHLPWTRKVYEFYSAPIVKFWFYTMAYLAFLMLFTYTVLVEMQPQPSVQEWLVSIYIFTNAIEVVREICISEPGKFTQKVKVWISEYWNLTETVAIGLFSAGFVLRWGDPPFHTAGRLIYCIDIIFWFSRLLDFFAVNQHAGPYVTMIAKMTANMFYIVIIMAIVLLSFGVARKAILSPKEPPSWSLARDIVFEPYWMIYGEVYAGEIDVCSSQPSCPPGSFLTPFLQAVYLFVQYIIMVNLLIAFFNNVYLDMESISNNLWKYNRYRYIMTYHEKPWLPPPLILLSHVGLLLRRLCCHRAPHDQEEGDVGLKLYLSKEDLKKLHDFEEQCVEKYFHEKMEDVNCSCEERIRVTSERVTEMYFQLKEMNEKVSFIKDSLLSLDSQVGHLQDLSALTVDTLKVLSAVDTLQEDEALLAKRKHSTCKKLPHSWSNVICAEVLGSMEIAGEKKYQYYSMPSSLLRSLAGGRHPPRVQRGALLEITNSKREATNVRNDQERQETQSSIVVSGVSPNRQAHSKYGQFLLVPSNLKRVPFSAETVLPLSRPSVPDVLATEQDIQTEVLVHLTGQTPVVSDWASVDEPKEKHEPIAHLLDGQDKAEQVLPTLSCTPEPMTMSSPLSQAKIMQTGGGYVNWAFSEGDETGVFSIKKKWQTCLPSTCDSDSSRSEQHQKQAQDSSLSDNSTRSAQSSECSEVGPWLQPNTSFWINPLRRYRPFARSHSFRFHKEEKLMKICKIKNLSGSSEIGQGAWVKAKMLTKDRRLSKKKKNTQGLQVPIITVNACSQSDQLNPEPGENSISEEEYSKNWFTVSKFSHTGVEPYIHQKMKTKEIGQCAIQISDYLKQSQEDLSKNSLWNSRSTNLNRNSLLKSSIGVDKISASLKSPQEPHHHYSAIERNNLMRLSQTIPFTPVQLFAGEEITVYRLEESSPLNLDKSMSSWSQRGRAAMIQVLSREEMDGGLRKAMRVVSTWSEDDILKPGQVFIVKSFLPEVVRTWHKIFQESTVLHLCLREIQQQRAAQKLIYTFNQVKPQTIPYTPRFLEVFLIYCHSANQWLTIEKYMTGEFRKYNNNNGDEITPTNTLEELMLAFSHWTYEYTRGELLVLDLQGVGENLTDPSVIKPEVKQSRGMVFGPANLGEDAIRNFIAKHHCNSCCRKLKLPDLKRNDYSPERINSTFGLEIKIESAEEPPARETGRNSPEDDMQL

Compound: C=CC(=O)Nc1ccc(C(=O)Nc2[nH]nc3c2CN(C(=O)N[C@H](CN(C)C)c2ccccc2)C3(C)C)cc1
- % of engagement [1]: 0.3%

Compound: COCC(=O)NC/C=C/c1ccc2ncnc(Nc3ccc(Oc4ccc(C)nc4)c(C)c3)c2c1 [CP-724714]
- % of control [2]: 71%
- % of control [3]: 92%

Compound: Cc1cc(F)c(C(=O)Nc2cccc(-c3nncn3C(C)C)n2)cc1-n1cnc(C2CC2)c1
- % of control [4]: 90%

Compound: Nc1cnc(N2CCc3cc(S(=O)(=O)Nc4c(F)cc(Cl)cc4F)cc(N4CCCC4=O)c32)nc1 [TP-020n]
- % of control [5]: 87%

Compound: Cn1cc(-n2cnc3c(NCc4nc5cc(Cl)c(Cl)cc5[nH]4)nc(N4CCOCC4)nc32)cn1
- % of control [6]: 1.33%

Compound: O=C(NOC[C@H](O)CO)c1ccc(F)c(F)c1Nc1ccc(I)cc1F
- % of control [7]: 80%

Compound: COc1cc(Nc2nc(C)cc(-c3cnn4nc(OC)ccc34)n2)cc(C(F)(F)F)c1
- % of control [8]: 100%

Compound: CCC(=O)N1CC[C@H](Nc2ncnc3c2CN(c2cnc(OC)c(C(F)(F)F)c2)CC3)C1 [LENIOLISIB]
- IC50 [9]: > 9.1 µM

Compound: N#Cc1cccc(-c2c[nH]c3ncnc(N4CCOCC4)c23)c1
- % of control [10]: 94%
- % of control [11]: 100%

Compound: CCc1cc(Nc2nccc(-c3c(-c4ccc(OC)c(C(=O)Nc5c(F)cccc5F)c4)nc4ccccn34)n2)c(OC)cc1N1CCC(N2CCN(S(C)(=O)=O)CC2)CC1
- IC50 [12]: > 250 µM

Compound: CNC(=O)Nc1ccc(-c2nc(N3CC4CCC(C3)O4)c3cnn(C4CCC5(CC4)OCCO5)c3n2)cc1
- % of control [13]: 52%

Compound: CN(C)CCOc1ccc(-c2nc(-c3ccncc3)c(-c3ccc4c(c3)CC/C4=N\O)[nH]2)cc1
- % of control [14]: 100%

Compound: CN(C)C/C=C/C(=O)Nc1ccc(C(=O)N2CCCC(Nc3ncc(Cl)c(-c4c[nH]c5ccccc45)n3)C2)cc1 (stereo not drawn)
- % of control [15]: 97%
- % of control [16]: 92%
- % of control [17]: 84%
- % of control [18]: 88%
